These results are taken from ChEMBL document CHEMBL1201862, “PubChem BioAssay data set” (2004).

Some test systems named below: OVCAR-5; MDA-MB-231; SK-MEL-28; Malme-3M; RXF 393; SW-620; SF-539; ACHN; 786-0; Hs-578T; HL-60; UO-31; UACC-257; CAKI-1; U-251; PC-3; HCT-116; EKVX; OVCAR-8; HOP-92.
Common to all, as to experiment: inhibition of tumour cell growth, NCI panel, 48 h

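Protocol summary: plate cells (96-well), add compound at 5 concentrations, incubate 48 h, interpolate endpoints linearly. GI50 = concentration required for 50% inhibition of growth.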 Activity calls are given as the source filed them. Cut-off read from the data, not from the text of the source: active = GI50 up to about 1.1 µM and inactive = higher. Where only a bound is given, the exact number is not on record here.

Regarding `CCCCC(C#N)(OP1(=O)OC(c2ccccc2)C(C)N1C)c1ccccc1` (stereo not given), the GI50 in the experiment on OVCAR-5 was 17.1 µM (inactive); in the experiment with MDA-MB-231, 15.7 µM (inactive); with SK-MEL-28 it was 16.3 µM (inactive); with Malme-3M, 15.6 µM (inactive); with RXF 393, 16.6 µM (inactive); in the experiment with SW-620, 16.4 µM (inactive). Also, the GI50 is 15.5 µM (inactive) with SF-539; 19 µM (inactive) in the experiment with ACHN; 17.3 µM (inactive) in the experiment with 786-0; 16.3 µM (inactive) in the experiment with Hs-578T; 14.4 µM (inactive) with HL-60; 17.3 µM (inactive) in the experiment on UO-31. The GI50 in the experiment with UACC-257 was 18.3 µM (inactive); in the experiment with CAKI-1, 18.7 µM (inactive); with U-251, 17.3 µM (inactive); in the experiment on PC-3, 17 µM (inactive); in the experiment on HCT-116, 16.2 µM (inactive); in the experiment with EKVX, 22.5 µM (inactive). In addition, the GI50 is 17.6 µM (inactive) in the experiment on OVCAR-8 and 12.4 µM (inactive) in the experiment with HOP-92.

Take `COc1ccc(C2=Nn3c(nc4sc(C)c(C)c4c3=O)SC2)cc1`: the GI50 in the experiment with OVCAR-5, in the experiment on MDA-MB-231, in the experiment with SK-MEL-28, in the experiment on Malme-3M, in the experiment on RXF 393 and in the experiment with SW-620 was > 100 µM (inactive) in each case. Moreover, the GI50 in the experiment on SF-539, with ACHN, with 786-0, in the experiment with Hs-578T, with HL-60 and in the experiment with UO-31 was > 100 µM (inactive) throughout. Besides, the GI50 with UACC-257, in the experiment on CAKI-1, with U-251, in the experiment on PC-3, in the experiment on HCT-116 and in the experiment with EKVX was > 100 µM (inactive) in each case. In addition, the GI50 in the experiment on OVCAR-8 and in the experiment on HOP-92 was > 100 µM (inactive) in each case.

As for `CC(C)(C)n1c(=O)n(C(=O)C(Cl)(Cl)Cl)n(C(=O)C(Cl)(Cl)Cl)c1=O`, the GI50 in the experiment on OVCAR-5, in the experiment on MDA-MB-231, with SK-MEL-28, in the experiment with Malme-3M, in the experiment with RXF 393 and in the experiment on SW-620 was > 100 µM (inactive) each time. Further, the GI50 in the experiment on SF-539, in the experiment with ACHN, in the experiment on 786-0, with Hs-578T, in the experiment with HL-60 and in the experiment with UO-31 was > 100 µM (inactive) throughout. Moreover, the GI50 in the experiment with UACC-257, with CAKI-1, in the experiment on U-251, in the experiment on PC-3, in the experiment with HCT-116 and with EKVX was > 100 µM (inactive) throughout. In addition, the GI50 in the experiment with OVCAR-8 and in the experiment with HOP-92 was > 100 µM (inactive) each time.

`CCOC(=O)/C=C(\C(=O)OCC)n1ccc(=O)n(Cc2cn(CCCCOC(C)=O)nn2)c1=O`: the GI50 was 14.3 µM (inactive) in the experiment with OVCAR-5; 18.6 µM (inactive) in the experiment on MDA-MB-231; 8.17 µM (inactive) in the experiment on SK-MEL-28; 2.18 µM (inactive) with Malme-3M; 12 µM (inactive) with RXF 393; 3.14 µM (inactive) in the experiment on SW-620. The GI50 in the experiment with SF-539 was 2.34 µM (inactive); in the experiment on ACHN, 5.33 µM (inactive); in the experiment on 786-0, 7.66 µM (inactive); with Hs-578T it was 22.7 µM (inactive); in the experiment on HL-60, 0.26 µM (active); with UO-31, 15.3 µM (inactive). The GI50 with UACC-257 was 17.4 µM (inactive); in the experiment on CAKI-1, 4.25 µM (inactive); in the experiment on U-251 it was 16.1 µM (inactive); in the experiment with PC-3 it was 17.1 µM (inactive); with HCT-116, 11.2 µM (inactive); in the experiment on EKVX, 13 µM (inactive). Further, the results for the GI50 in the experiment on OVCAR-8 and in the experiment with HOP-92 were 7.01 µM (inactive) and 2.55 µM (inactive), respectively.

As for `C/C=C/CC(C(=O)OCC)(N(C)C(=O)OC(C)(C)C)S(=O)(=O)c1ccc(C)cc1` (stereo not given), the GI50 in the experiment with OVCAR-5 is > 100 µM (inactive); in the experiment on MDA-MB-231, > 100 µM (inactive); in the experiment on SK-MEL-28 it was > 100 µM (inactive); in the experiment with Malme-3M it was > 100 µM (inactive); in the experiment on RXF 393 it was > 100 µM (inactive); with SW-620 it was 56.5 µM (inactive). Moreover, the GI50 in the experiment with SF-539 is > 100 µM (inactive); with ACHN, > 100 µM (inactive); in the experiment with 786-0, > 100 µM (inactive); in the experiment on Hs-578T, > 100 µM (inactive); in the experiment with HL-60 it was 45.3 µM (inactive); in the experiment with UO-31, > 100 µM (inactive). Besides, the GI50 in the experiment on UACC-257 was > 100 µM (inactive); in the experiment with CAKI-1 it was > 100 µM (inactive); in the experiment on U-251 it was 81.5 µM (inactive); in the experiment on PC-3, 71.8 µM (inactive); in the experiment on HCT-116 it was 70.6 µM (inactive); in the experiment with EKVX, > 100 µM (inactive). The GI50 in the experiment on OVCAR-8 and in the experiment on HOP-92 was > 100 µM (inactive) each time.

Take `Cc1ccc(/C=C2\CCC/C(=C\c3ccc(O)c(CN4CCCCC4)c3)C2=O)cc1`: the GI50 with OVCAR-5 is 17.4 µM (inactive); in the experiment with MDA-MB-231, 5.41 µM (inactive); with SK-MEL-28, 15.7 µM (inactive); in the experiment on Malme-3M, 17.3 µM (inactive); in the experiment on RXF 393, 14.1 µM (inactive); with SW-620 it was 3.6 µM (inactive). In addition, the GI50 in the experiment on SF-539 was 9.42 µM (inactive); in the experiment with ACHN it was 5.61 µM (inactive); in the experiment on 786-0, 3.72 µM (inactive); in the experiment with Hs-578T, 7.78 µM (inactive); in the experiment on HL-60 it was 3.52 µM (inactive); in the experiment on UO-31, 11.2 µM (inactive). The GI50 was 5.09 µM (inactive) with UACC-257; 14.6 µM (inactive) in the experiment with CAKI-1; 5.27 µM (inactive) in the experiment with U-251; 8.05 µM (inactive) in the experiment with PC-3; 2.74 µM (inactive) in the experiment with HCT-116; 12.6 µM (inactive) in the experiment with EKVX. The GI50 is 2.97 µM (inactive) with OVCAR-8 and 9.71 µM (inactive) in the experiment on HOP-92.

For `COc1cc(C2c3cc4c(cc3[C@@H](Nc3ccc(C#N)cc3)C3COC(=O)[C@H]23)OCO4)cc(OC)c1O` (stereo not given in full), the GI50 in the experiment on OVCAR-5 is 5.64 µM (inactive); in the experiment with MDA-MB-231, 9.31 µM (inactive); in the experiment with SK-MEL-28, 6.97 µM (inactive); in the experiment on Malme-3M, 1.29 µM (inactive); with RXF 393, 1.41 µM (inactive); in the experiment with SW-620, 0.889 µM (active). Moreover, the GI50 in the experiment with SF-539 is 1.14 µM (inactive); in the experiment on ACHN it was 0.184 µM (active); in the experiment on 786-0 it was 0.724 µM (active); in the experiment with Hs-578T it was 5.09 µM (inactive); with HL-60 it was 0.143 µM (active); in the experiment with UO-31, 1.62 µM (inactive). Besides, the GI50 with UACC-257 is 7.26 µM (inactive); in the experiment on CAKI-1, 0.436 µM (active); in the experiment with U-251, 1.43 µM (inactive); in the experiment on PC-3 it was 9.82 µM (inactive); in the experiment with HCT-116, 2.01 µM (inactive); in the experiment on EKVX it was 16.7 µM (inactive). Further, the GI50 in the experiment with OVCAR-8 is 0.975 µM (active); in the experiment with HOP-92, 1.02 µM (active).

Turning to `NS(=O)(=O)c1ccc(/N=N/c2cccnc2O)cc1`, the GI50 with OVCAR-5, in the experiment on MDA-MB-231, in the experiment with SK-MEL-28, with Malme-3M, with RXF 393 and with SW-620 was > 100 µM (inactive) throughout. The GI50 with SF-539, in the experiment on ACHN, in the experiment with 786-0, in the experiment with Hs-578T, with HL-60 and in the experiment with UO-31 was > 100 µM (inactive) throughout. For the same compound, the GI50 with UACC-257, in the experiment on CAKI-1, with U-251, with PC-3, in the experiment on HCT-116 and in the experiment on EKVX was > 100 µM (inactive) each time. Also, the GI50 in the experiment with OVCAR-8 and in the experiment on HOP-92 was > 100 µM (inactive) in each case.

Take `O=c1ccc2cc(O)c(O)cc2o1` [ESCULETIN]: the GI50 with OVCAR-5, in the experiment with MDA-MB-231, with SK-MEL-28, in the experiment on Malme-3M, in the experiment on RXF 393 and with SW-620 was > 100 µM (inactive) in each case. The GI50 with SF-539, in the experiment on ACHN, with 786-0, in the experiment on Hs-578T, in the experiment on HL-60 and in the experiment with UO-31 was > 100 µM (inactive) in each case. Besides, the GI50 with UACC-257 was > 100 µM (inactive); in the experiment on CAKI-1, > 100 µM (inactive); in the experiment with U-251, > 100 µM (inactive); in the experiment with PC-3 it was > 92.9 µM (inactive); in the experiment on HCT-116, > 100 µM (inactive); in the experiment with EKVX, > 100 µM (inactive). Also, the GI50 in the experiment on OVCAR-8 and in the experiment with HOP-92 was > 100 µM (inactive) throughout.
